In paper PMC11551755, “Structure-based discovery of first inhibitors targeting the helicase activity of human PIF1” (Nucleic Acids Research, 2024):

Target: T1, FLhPIF1 (Homo sapiens, UniProt Q9H611)
T1 construct: Full length human PIF1 (FLhPIF1) was expressed and purified as a His-SUMO fusion; His-SUMO (cleaved yes); made in house; 'following similar protocols' to hPIF1HD (ArcticExpress BL21(DE3) E. coli)
T1 sequence (Q9H611 1-641): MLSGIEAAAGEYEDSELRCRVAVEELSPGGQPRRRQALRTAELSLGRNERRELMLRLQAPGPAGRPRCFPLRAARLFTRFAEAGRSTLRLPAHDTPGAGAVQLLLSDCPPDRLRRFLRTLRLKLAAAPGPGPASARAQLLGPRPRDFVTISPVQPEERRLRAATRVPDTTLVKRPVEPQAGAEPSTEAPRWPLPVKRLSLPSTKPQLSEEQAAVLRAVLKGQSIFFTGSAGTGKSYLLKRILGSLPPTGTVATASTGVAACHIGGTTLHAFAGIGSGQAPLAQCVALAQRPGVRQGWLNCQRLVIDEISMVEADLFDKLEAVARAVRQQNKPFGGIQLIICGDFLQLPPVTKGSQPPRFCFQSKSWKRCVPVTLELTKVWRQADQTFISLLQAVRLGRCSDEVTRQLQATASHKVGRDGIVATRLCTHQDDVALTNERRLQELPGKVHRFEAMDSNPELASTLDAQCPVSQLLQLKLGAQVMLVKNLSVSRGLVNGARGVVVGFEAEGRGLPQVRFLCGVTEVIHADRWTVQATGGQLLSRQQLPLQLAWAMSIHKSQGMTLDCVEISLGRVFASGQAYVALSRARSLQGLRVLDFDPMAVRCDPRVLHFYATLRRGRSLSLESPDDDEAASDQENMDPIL
Assay: helicase assay after pre-incubation of SMI with FLhPIF1
Type: biochemical
Conditions: for effect of pre-incubation on inhibition of unwinding: 100 μM SMI with 100 nM FLhPIF1, 1 h at 22°C, then 1:10 dilution, compared to no pre-incubation; for pre-incubation time-course, inhibition of unwinding: 0–3 h pre-incubation, 100 nM FLhPIF1, 100 μM SMI, n = 4; for IC50: 2 h pre-incubation at 22°C with 100 nM FLhPIF1, then 1:10 dilution into helicase assay, read-out: IC50 for dsDNA unwinding by FLhPIF1 following pre-incubation
Procedure: Helicase activity was assayed using a radiometric strand displacement assay employing a partially single- and double-stranded substrate generated by annealing two oligonucleotides: 5′-(T)55-[…] and 5′-[…], as described previously ([19],[28]). The reaction buffer was 20 mM HEPES–NaOH pH 7.5, 20 mM NaCl, 5.5 mM MgCl2, 5 mM ATP, 1 mM DTT and 0.1 mg/ml BSA. SMIs (100 mM stocks in DMSO) were assayed at up to 2 mM without pre-incubation with FLhPIF1, unless otherwise stated. Reactions (0.1 nM substrate) were incubated at 37°C for 20 min, followed by addition of 0.2 volumes of 120 mM EDTA, 0.6% (w/v) SDS, 60% (v/v) glycerol and 0.1% (w/v) bromophenol blue before resolution of products by polyacrylamide gel electrophoresis (8%, 19:1 acrylamide:bis-acrylamide), 1× TBE (90 mM Tris–borate/2 mM EDTA, pH 8.3 with 0.05% (w/v) SDS buffer). Dried gels were exposed to phosphorimaging plates (Fujifilm) for imaging and quantification (Fuji FLA3000, image gauge V3.3 software). IC50 values were analysed by non-linear regression (variable slope) using GraphPad Prism.
First, we screened inhibitory activity of the SMIs listed in Table 1, following incubation of 100 nM FLhPIF1 with 100 μM SMI for 1 h at 22°C in the absence of substrates (ATP and DNA), before a 1:10 dilution into helicase reactions. […] Next, compounds 2, 5, 6 and 11, along with 4 and 1D were selected for analysis in a pre-incubation time-course (100 nM FLhPIF1, 100 μM SMI), up to 3 h before assaying helicase activity.
In parallel, IC50 values for inhibition of human UPF1 (hUPF1) helicase activity by the SMIs were also determined under the same conditions. UPF1-like SF1B helicases are the most closely related family of helicases to PIF1, with significant structural and mechanistic similarity ([52]).
Figure 6. SMI IC50 for dsDNA unwinding determined following pre-incubation. SMIs (0.0078–2 mM SMI) were incubated for 2 h at 22°C (100 nM FLhPIF1 or hUPF1) before dilution (1:10) in the standard helicase assay (0.1 nM DNA substrate). For 1D and 6, structures, electrophoresis of FLhPIF1 reaction product and graphs for IC50 value determination are shown. The graphed data include the activity of SMIs towards hUPF1 and IC50 values obtained are given. See Supplementary Figure S14 for the complete data set. TEXT PRINTED IN THE PICTURE: 1D: IC50 (μM): PIF1: 978 ± 221; IC50 (μM): UPF1: N.D. | 6: IC50 (μM): PIF1: 79.4 ± 16; IC50 (μM): UPF1: 1750 ± 426

Row | Structure (SMILES) | effect of pre-incubation on inhibition of unwinding | pre-incubation time-course, inhibition of unwinding | IC50
1 | CC(=O)Nc1ccc(-c2csc(N)n2)cc1-c1ccc(C)cc1 [Compound 10] | significantly enhanced inhibitory activity |  | 
2 | CC(=O)c1ccc(-c2csc(N)n2)cc1 [Compound 2] | significantly enhanced inhibitory activity | increasing inhibition with increasing time of pre-incubation | 65 ± 25 µM
3 | CC(=O)Nc1ccc(-c2csc(N)n2)cc1C1=CCNCC1 [Compound 11] | significantly enhanced inhibitory activity | increasing inhibition with increasing time of pre-incubation | 109 ± 47 µM
4 | N#Cc1ccc(-c2csc(N)n2)cc1 [Compound 5] | significantly enhanced inhibitory activity | increasing inhibition with increasing time of pre-incubation | 67.4 ± 20 µM
5 | Nc1nc(-c2ccc(C(=O)c3ccccc3)cc2)cs1 [Compound 6] | significantly enhanced inhibitory activity | increasing inhibition with increasing time of pre-incubation | 79.4 ± 16 µM
